Laboratory results published in patent US20140004209A1, “AUTOPHAGY INDUCER AND INHIBITOR COMBINATION THERAPY FOR THE TREATMENT OF NEOPLASMS” (GENENTECH, INC., priority 2010, published 2014).
“Also recorded” adds a separate entry of the source. Like-named read-outs stand apart in the source and are kept apart here.

Columns and labels:
PC3 cells [1] = assay: Microarray analysis of autophagy gene expression in PC3 cells; type: cell-based, human; conditions: 1 or 5 μM for 6 or 24 hours, normalized to DMSO
Method: PC3 cells were induced to express shRNA to indicated Akt isoforms for 72 hours by Doxycycline, RNA was extracted from both Dox treated (Dox+) or untreated control (Dox−) cells. Microarray analysis was carried out using Affymetrix chips. Ratios of the expression levels of each autophagy gene from Dox+ and Dox− samples are shown. Data are mean values from 3 independent experiments.
RNA was extracted from the cells. Microarray analysis was carried out using Affymetrix chips. Expression levels of each autophagy gene are normalized to the DMSO controls. Data are mean values from 3 independent experiments.

[2] = system: PC3 (PTEN-, p53- and Al) cell line; assay: CellTiter-Glo growth inhibition, III-4 and CQ combination; type: cell-based, human; conditions: 1:25 ratio
Excerpt: (§1) FIG. 26B depicts the CI (combination index) by using bar graphs for data obtained by CellTiter-Glo assay at day 4 of treatment with 10% serum.
FIGS. 27A-B depicts data for the PC3 (PTEN-, p53- and Al) cell line.

[3] = system: MDA-361.1 (PI2-K mut (E545K), Her2+, HR+ and Luminal) cell line; assay: as above; type: cell-based; conditions: 1:12.5 ratio
Excerpt: as §1
FIGS. 28A-B depicts data for the MDA-361.1 (PI2-K mut (E545K), Her2+, HR+ and Luminal) cell line.

[4] = Cell death in combination with CQ (FIG. 17); type: cell-based
[5] = system: U87MG (PTEN-, PI3K mut (1391M)) cell line; assay: CellTiter-Glo growth inhibition, III-4 and CQ combination; type: cell-based, human; conditions: 1:1.5 ratio
Method: as §1
FIGS. 30A-B depicts data for the U87MG (PTEN-, PI3K mut (1391M)) cell line.

multiple cell lines = assay: ED50 of CQ, AKTi and combination by CellTiter-Glo in multiple cell lines; type: cell-based; conditions: day 4, 10% serum
Excerpt: as §1

[6] = system: MDA-MB-231 (Kras, Braf, p53 mut, Triple- and Basal) cell line; assay: CellTiter-Glo growth inhibition, III-4 and CQ combination; type: cell-based
Excerpt: as §1

class I PI3Ks and mTOR = conditions: cited from earlier work
class III PI3K = class III PI3K (Homo sapiens, UniProt Q8NEB9); conditions: cited from earlier work
class III PI3K, sequence (Q8NEB9 whole entry): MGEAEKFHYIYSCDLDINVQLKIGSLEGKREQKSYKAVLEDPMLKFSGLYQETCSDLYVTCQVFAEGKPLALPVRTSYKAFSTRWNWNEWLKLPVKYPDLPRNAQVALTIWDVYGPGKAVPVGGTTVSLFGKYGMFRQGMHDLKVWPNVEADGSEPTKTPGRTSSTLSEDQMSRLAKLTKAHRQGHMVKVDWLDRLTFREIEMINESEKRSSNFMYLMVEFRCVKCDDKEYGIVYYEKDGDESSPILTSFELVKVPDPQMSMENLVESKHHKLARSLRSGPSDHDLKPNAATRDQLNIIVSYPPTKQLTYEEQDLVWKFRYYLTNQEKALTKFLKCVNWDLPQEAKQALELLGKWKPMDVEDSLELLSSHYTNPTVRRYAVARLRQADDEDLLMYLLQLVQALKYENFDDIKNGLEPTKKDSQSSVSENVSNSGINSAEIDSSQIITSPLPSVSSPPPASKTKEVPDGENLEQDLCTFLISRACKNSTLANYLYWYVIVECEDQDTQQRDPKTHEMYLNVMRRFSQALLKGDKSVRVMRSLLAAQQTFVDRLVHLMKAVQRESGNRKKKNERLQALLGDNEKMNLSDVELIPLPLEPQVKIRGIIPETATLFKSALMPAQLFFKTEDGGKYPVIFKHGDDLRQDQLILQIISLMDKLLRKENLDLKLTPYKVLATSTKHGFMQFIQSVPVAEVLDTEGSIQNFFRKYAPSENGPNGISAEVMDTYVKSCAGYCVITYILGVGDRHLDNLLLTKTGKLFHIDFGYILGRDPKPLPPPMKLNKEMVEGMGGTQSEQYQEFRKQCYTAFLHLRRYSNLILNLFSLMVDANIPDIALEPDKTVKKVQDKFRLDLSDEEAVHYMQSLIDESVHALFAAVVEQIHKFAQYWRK

PC3 cells [7] = assay: Autophagy markers in PC3 cells (EM AVs, GFP-LC3, LC3-II/LC3-I, MDC, AO); type: cell-based, human
Method: Western blot analysis, immunofluorescence, 1HC and TUNEL assay: For Western blot analysis, total protein lysates were subjected to SDS-PAGE and transferred to nitrocellulose. […] Detection and quantification were performed using an Odyssey infrared scanner (LICOR) using the manufacturer's software. For immunofluorescence staining, cells were fixed in 3% paraformaldehyde and permeabilized with 0.01% digitonin in PBS, followed by a rabbit polyclonal anti-LC3 (Abgent) primary antibody detected with a cy3-conjugated anti-rabbit secondary antibody (Jackson Immunoresearch). For IHC, formalin-fixed, paraffin-embedded specimens were collected. 5-μm-thick paraffin-embedded sections were stained using an anti-Ki-67 (MIB-1, DakoCytomation) antibody with the Dako ARK kit (Dako Corporation). Tissues were counterstained with haematoxylin, dehydrated, and mounted. In all cases, antigen retrieval was performed with the Dako Target Retrieval Kit as per manufacturer's instructions. For TUNEL assay, formalin-fixed, paraffin-embedded sections were stained using an in situ cell death detection kit (POD; Roche Diagnostic) according to the manufacturer's instructions.
Ultrathin sections were stained with uranyl acetate and lead citrate. Numbers of AV were counted on systematically sampled cytoplasmic areas of 4.5 μm^2 (n≧64 per condition). The percent AV area was measured by means of a square mesh grid laid over ≧5 sets of systematically sampled micrographs with each set covering a cytoplasmic area ≧80 μm^2. The average percent of apoptotic nuclei in tumor tissues was calculated from the number of apoptotic nuclei in 3 to 4 sets of 100 systematically counted tumor cell nuclei.
Multispectral imaging flow cytometry: Cells treated with various agents were stained with Acridine Orange and analyzed by the ImageStream system (Amnis Corporation, Seattle, Wash.) using the IDEAS image analysis program. The DNA AOGreen image and the vacuolar AO Red image were first compensated into separate channels, and then the percentage of apoptotic/anucleate cells (based on AO nuclear morphology and intensity) and vacuolated cells (AO Red+) were quantified. […] AORed Intensity is plotted on the second histogram with an arbitrary gate (R5) drawn to include events with the brightest AO Red intensity.

PC3 cells [8] = assay: PC3 cell viability and cell death (PI exclusion, annexin V, caspase-3/7); type: cell-based, human; conditions: 0.5 μM III-5, 10 μM CQ, 0.5% FBS
Method: Cell viability and cell cycle analysis. Cell number and viability was measured using trypan blue exclusion assay using a Vi-Cell Analyzer (Beckman Coulter), or labeled with 1 μg/ml PI in PBS/1% BSA followed by cytofluorometric analysis with a fluorescence-activated cell sorter (FACS) (Becton Dickinson). FITC-conjugated Annexin V was used for the assessment of phosphatidylserine exposure by FACS analysis. Caspase activation was analyzed using a Caspase-Glo 3/7 Assay kit (Promega). For cell cycle analysis, cells were fixed with drop-wise addition of chilled 70% ethanol, washed with PBS and resuspended in staining solution containing 50 μg/ml PI and 60 units of RNAse A. DNA content was analyzed by flow cytometry using the FlowJo and ModFit software (Becton Dickinson).

| Compound | autophagy gene expression (PC3 cells [1]) | growth inhibition, III-4 and CQ combination vs single agents [2] | growth inhibition, III-4 and CQ combination vs single agents [3] | interaction with CQ on cell death [4] | growth inhibition, III-4 and CQ combination vs single agents [5] | ED50 of combination with CQ vs single agents (multiple cell lines) | growth inhibition, III-4 and CQ combination vs single agents [6] | inhibition of the class I PI3Ks and mTOR (class I PI3Ks and mTOR) | more potent on class I than class III PI3K (class III PI3K) | less potent on the class III PI3K (class III PI3K; relative to class I PI3Ks and mTOR) | induction of AV accumulation / autophagy, agent alone (PC3 cells [7]) | MDC+ vacuoles, III-5 in combination with CQ (PC3 cells [7]; 0.5 μM III-5, 10 μM CQ, 48 h) | induction of AV accumulation / autophagy, agent alone (PC3 cells [7]; listed as PI-103) | cell death, III-5 (PI-103) in combination with CQ (PC3 cells [8]) | cell death, III-5 (PI-103) in combination with CQ (PC3 cells [8]; listed as PI-103) |
| --- | --- | --- | --- | --- | --- | --- | --- | --- | --- | --- | --- | --- | --- | --- | --- |
| CC(C)NC[C@@H](C(=O)N1CCN(c2ncnc3c2[C@H](C)C[C@H]3O)CC1)c1ccc(Cl)cc1 [III-4, (S)-2-(4-chlorophenyl)-1-(4-((5R,7R)-7-hydroxy-5-methyl-6,7-dihydro-5H-cyclopenta[d]pyrimidin-4-yl)piperazin-1-yl)-3-(isopropylamino)propan-1-one] | induce autophagy gene expression | the combination inhibits growth in the cell line at lower concentrations of III-4 than either III-4 alone or CQ alone | the combination inhibits growth in the cell line at lower concentrations of III-4 than either III-4 alone or CQ alone | synergize with CQ to accelerate cell death | the combination inhibits growth in the cell line at lower concentrations of III-4 than either III-4 alone or CQ alone | significantly lowers the ED50 for both the AKTi and CQ | the combination inhibits growth in the cell line at lower concentrations of III-4 than either III-4 alone or CQ alone |  |  |  |  |  |  |  |  |
| Oc1cccc(-c2nc(N3CCOCC3)c3oc4ncccc4c3n2)c1 [III-5] |  |  |  |  |  |  |  | nanomolar concentrations | 1,000 × | > 1,000 fold | potent at inducing the accumulation of AVs | CQ dramatically increased the size and number of MDC+ vacuoles | induced overt autophagy | CQ accelerated cell death in combination with III-5; also recorded: combination with CQ accelerated the death of cells | significantly accelerated death rate |
